Test results as given in patent publication US8471063B2, “Michael systems as transglutaminase inhibitors” (Zedira GmbH, priority 2006, dated 2013).
Where two headings read alike, the source gives them in different places. *1 amine or outer side, *2 acyl side, *3 side chain or, on linkers, in order; H or OH if unused. Where a SMILES comes first, the peptide text is derived from it. [ ]: non-standard residue; d: D form. X3 = O=C([C@H](CC/C=C/[N+](=O)[O-])N[*:1])[*:2]; Phe(2,4-Cl2) = N[C@@H](Cc1ccc(Cl)cc1Cl)C(=O)O; X1 = CN(C)C(=O)/C=C/CC[C@H](N[*:1])C(=O)[*:2]; X4 = O=C([C@@H]1C(O)c2ccccc2CN1[*:1])[*:2]; hCit = NC(=O)NCCCC[C@H](N)C(=O)O; Aib = CC(C)(N)C(=O)O

How the values were obtained:
Assay type in all cases: biochemical
[1] = target: T1, TG3 (Homo sapiens, UniProt Q08188); test: Transglutaminase inhibition, IC50 at TG3
T1 sequence (Q08188 1-693): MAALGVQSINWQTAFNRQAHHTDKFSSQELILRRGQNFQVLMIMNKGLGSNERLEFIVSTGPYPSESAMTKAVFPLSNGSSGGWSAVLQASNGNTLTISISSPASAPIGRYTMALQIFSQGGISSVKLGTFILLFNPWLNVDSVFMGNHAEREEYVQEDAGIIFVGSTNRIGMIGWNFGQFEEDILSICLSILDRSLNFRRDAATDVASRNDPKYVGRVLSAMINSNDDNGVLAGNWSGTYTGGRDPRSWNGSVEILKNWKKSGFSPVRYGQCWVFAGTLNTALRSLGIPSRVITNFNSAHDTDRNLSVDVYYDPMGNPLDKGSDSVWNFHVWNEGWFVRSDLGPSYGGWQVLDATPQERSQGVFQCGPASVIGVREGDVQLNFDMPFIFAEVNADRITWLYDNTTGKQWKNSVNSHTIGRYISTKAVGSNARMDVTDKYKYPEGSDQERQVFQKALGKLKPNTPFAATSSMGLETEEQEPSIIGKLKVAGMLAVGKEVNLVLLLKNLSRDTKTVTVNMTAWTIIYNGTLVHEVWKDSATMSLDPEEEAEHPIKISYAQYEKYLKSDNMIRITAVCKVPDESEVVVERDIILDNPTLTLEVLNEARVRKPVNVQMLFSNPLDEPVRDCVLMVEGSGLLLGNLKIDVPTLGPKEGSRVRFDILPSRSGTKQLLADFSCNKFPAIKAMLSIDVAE

[2] = target: T2, TG6 (Homo sapiens, UniProt O95932); test: Transglutaminase inhibition, IC50 at TG6
T2 construct: His6 (N); made in house; host or cells: E. coli BL21 (DE3)
T2 sequence (O95932 1-706): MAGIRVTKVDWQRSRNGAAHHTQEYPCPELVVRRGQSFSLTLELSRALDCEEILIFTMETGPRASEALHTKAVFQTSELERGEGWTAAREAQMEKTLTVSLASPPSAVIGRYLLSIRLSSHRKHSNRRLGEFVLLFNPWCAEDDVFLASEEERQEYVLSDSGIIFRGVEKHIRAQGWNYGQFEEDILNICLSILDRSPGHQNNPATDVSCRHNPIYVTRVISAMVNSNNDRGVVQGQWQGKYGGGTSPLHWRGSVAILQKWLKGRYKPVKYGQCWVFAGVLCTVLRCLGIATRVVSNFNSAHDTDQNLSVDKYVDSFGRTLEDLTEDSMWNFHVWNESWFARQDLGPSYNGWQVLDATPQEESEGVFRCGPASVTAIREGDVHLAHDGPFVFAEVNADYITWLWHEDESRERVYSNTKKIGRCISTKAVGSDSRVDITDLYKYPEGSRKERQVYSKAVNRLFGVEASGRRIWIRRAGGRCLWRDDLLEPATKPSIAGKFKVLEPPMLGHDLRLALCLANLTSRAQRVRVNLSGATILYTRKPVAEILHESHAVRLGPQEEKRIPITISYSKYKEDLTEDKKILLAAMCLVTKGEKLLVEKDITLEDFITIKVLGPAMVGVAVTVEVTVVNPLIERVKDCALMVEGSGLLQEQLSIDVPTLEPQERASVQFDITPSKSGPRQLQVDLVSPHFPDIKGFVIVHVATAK
Experimental: (§1) The genes encoding for TG6 and TG7 were amplified from TG6-cDNA and TG7-cDNA, respectively, with PCR according to standard procedures (both state-of-the-art according to U.S. Pat. No. 7,052,890). Through the primers used a NdeI restriction site and six histidine codons were inserted at the 5′ end and a BgIII restriction site (TG6) and a HindIII restriction site (TG7) at the 3′ end.
(§2) The Tg6 PCR product was treated with the restriction endonucleases NdeI and BgIII. In the NdeI and BamH I restricted vector pET 3a was inserted. The Tg7 PCR product was treated with the restriction endonucleases NdeI and HindIII. and in the likewise restricted vector pET 28b was inserted.
(§3) The E. coli strain BL21 (DE3) (Novagen, Darmstadt) was transformed with the obtained plasmids. A culture of one strain each was induced with IPTG and harvested. After cell disruption under high pressure homogenisation the disrupts were centrifuged and the supernatants were purified via metal ion affinity chromatography on HiTrap chelating HP columns (GE-Helathcare). The purified proteins TG6 and TG7 were analyzed by SDS-PAGE with Coomassie staining. All procedures used for the production of TG6 and TG7 are well known to the one skilled in the art.

[3] = target: T3, TG7 (Homo sapiens, UniProt Q96PF1); test: Transglutaminase inhibition, IC50 at TG7
T3 construct: His6 (N); made in house; host or cells: E. coli BL21 (DE3)
T3 sequence (Q96PF1 1-710): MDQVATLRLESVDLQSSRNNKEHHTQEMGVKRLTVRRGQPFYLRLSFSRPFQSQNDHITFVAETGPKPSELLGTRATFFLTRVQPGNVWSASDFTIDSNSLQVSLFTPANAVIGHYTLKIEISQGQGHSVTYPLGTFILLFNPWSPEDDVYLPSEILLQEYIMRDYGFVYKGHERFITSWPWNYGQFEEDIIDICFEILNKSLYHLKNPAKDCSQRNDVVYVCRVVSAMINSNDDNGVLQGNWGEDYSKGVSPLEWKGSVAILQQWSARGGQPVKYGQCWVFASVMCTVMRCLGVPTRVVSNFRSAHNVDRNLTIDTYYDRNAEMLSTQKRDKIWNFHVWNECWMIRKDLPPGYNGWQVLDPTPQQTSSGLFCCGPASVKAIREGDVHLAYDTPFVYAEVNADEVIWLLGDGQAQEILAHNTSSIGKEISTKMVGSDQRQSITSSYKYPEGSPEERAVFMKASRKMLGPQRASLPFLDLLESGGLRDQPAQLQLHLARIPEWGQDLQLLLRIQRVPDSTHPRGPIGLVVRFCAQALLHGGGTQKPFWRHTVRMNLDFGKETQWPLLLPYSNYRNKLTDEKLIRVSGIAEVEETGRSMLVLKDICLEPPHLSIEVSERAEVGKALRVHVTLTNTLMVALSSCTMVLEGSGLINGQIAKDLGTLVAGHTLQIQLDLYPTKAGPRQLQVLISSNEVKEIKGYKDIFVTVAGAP
Experimental: as §1, §2, §3

[4] = Table 2, read-out: IC50 value [TG3]
[5] = Table 2, read-out: IC50 value [TG6]
[6] = Table 2, read-out: IC50 value [TG7]

IC50 [1, 4]	IC50 [2, 5]	IC50 [3, 6]	Compound	IC50 [1]	IC50 [2]	IC50 [3]
> 100 µM	4 µM	46 µM	CC[C@H](C)[C@H](NC(=O)[C@H](CCC(N)=O)NC(=O)[C@H](CC/C=C/C(=O)N(C)C)NC(=O)[C@H](Cc1ccc(Cl)cc1Cl)NC(=O)C(C)(C)NC(C)=O)C(=O)N[C@H](C(=O)O)C(C)C [Compound 3.2.13] (Ac-[Aib][Phe(2,4-Cl2)][X1]QIV-OH)	–	–	–
2.3 µM	> 100 µM	> 100 µM	CC(=O)N[C@@H](CCC(N)=O)C(=O)N[C@@H](CCC(N)=O)C(=O)N[C@@H](CC/C=C/[N+](=O)[O-])C(=O)N[C@H](C(=O)N[C@@H](CCCCNC(N)=O)C(=O)N[C@@H](CCC(N)=O)C(=O)N1Cc2ccccc2C(O)[C@H]1C(N)=O)C(C)C (stereo partly drawn) [Compound 3.2.14] (Ac-QQ[X3]V[hCit]Q[X4]-NH2)	–	–	–
–	–	–	CC(=O)N[C@@H](CCl)C(=O)N1CSC[C@H]1C(=O)N[C@@H](CC/C=C/C(=O)c1ccc([N+](=O)[O-])cc1)C(=O)N[C@@H](CCC(N)=O)C(=O)N[C@@H](CC1CCCCC1)C(=O)Nc1ccc(C(=O)O)cc1 [Compound 3.2.16]	48 µM	2 µM	3.4 µM
